Results: patent publication US20200163984A1, “USE OF ISOVALERYL SPIRAMYCIN I, II AND/OR III IN MANUFACTURING MEDICAMENT FOR TREATING AND/OR PREVENTING TUMOR, AND MEDICAMENT” (SHENYANG FUYANG PHARMACEUTICAL TECHNOLOGY CO., LTD., priority 2017, published 2020)

Key:
[1] = system: transplanted tumor of human large cell lung cancer H460 cells; assay: H460 transplanted tumor in nude mice
Procedure: (§1) Then cell concentration was adjusted to 1×10^7/ml with matrigel, then each nude mouse was inoculated subcutaneously with 0.2 ml of cells at its right armpit and recorded as the first day of inoculation. When the tumor grows to be greater than or equal to 100 mm^3, the mice were randomly divided into 11 groups with 6 mice in each group: isovaleryl spiramycin I groups with doses of 25, 50 and 100 mg/kg, isovaleryl spiramycin II groups with doses of 25, 50 and 100 mg/kg, and isovaleryl spiramycin III groups with doses of 25, 50 and 100 mg/kg. Each group was continuously administered intragastrically for 30 days with a dose of 20 ml/kg. The mice were sacrificed the next day after drug withdrawal and the indicators were tested. The long diameter and short diameter of the tumor, and the body weight of each mouse were recorded every 3 days from drug administration to nude mouse sacrifice.
(§2) The body weight of the nude mice and the long diameter (a) and short diameter (b) of the transplanted tumor were measured every 3 days, and the tumor volume (v), relative tumor volume (RTV) and relative tumor proliferation rate (T/C) are calculated respectively according to the following formulas, wherein V=a×b^2/2; RTV=V/V0 (V0 is the tumor volume before administration, V is the tumor volume before sacrifice), and T/C (%)=treatment group RTV/model control group RTV×100%.
(§3) Each mouse was weighed and sacrificed. After the tumor was completely stripped off from the body of the mouse, the non-tumor tissues such as blood stains and fat were removed to weigh the tumor and calculate the tumor growth inhibition rate. The average tumor weight of each group of mice is used as an indicator of efficacy. Tumor growth inhibition rate (%)=(1−the average tumor weight of the treatment group/the average tumor weight of the model group)×100%.

[2] = system: transplanted tumor of human bladder cancer cell T-24; assay: T-24 transplanted tumor in nude mice
Procedure: as §1, §2, §3

[3] = system: transplanted tumor of human non-small cell lung cancer cell A549; assay: A549 transplanted tumor in nude mice
Procedure: as §1, with “A549 cells in a logarithmic growth phase were taken and subjected to a trypan blue exclusion experiment showing that the cell viability was more than 95%, then the cells were subjected to trypsinization, centrifugation, and supernatant removal. Then” for “Then”, “group: a model group, a cyclophosphamide group,” for “group:”
as §2, §3

[4] = H460, 25 mg/kg (low dose) i.g. 30 days
[5] = H460, 50 mg/kg (medium dose) i.g. 30 days
[6] = H460, 100 mg/kg (high dose) i.g. 30 days
[7] = T-24, high dose (100 mg/kg in method) i.g. 30 days
[8] = T-24, low dose (25 mg/kg in method) i.g. 30 days
[9] = T-24, medium dose (50 mg/kg in method) i.g. 30 days
[10] = A549, high dose (100 mg/kg in method) i.g. 30 days
[11] = A549, low dose (25 mg/kg in method) i.g. 30 days
[12] = A549, medium dose (50 mg/kg in method) i.g. 30 days

SMILES: COC1C(OC(C)=O)CC(=O)OC(C)CC=CC=CC(OC2CCC(N(C)C)C(C)O2)C(C)CC(CC=O)C1OC1OC(C)C(OC2CC(C)(O)C(OC(=O)CC(C)C)C(C)O2)C(N(C)C)C1O (stereo not drawn) [Isovaleryl spiramycin II, isovaleryl spiramycin II]
- Inhibition Rate (tumor growth inhibition rate) [1, 4]: 14.22%
- Relative Tumor Proliferation Rate (T/C) [1, 4]: 51.97%
- Relative Tumor Volume (RTV) [1, 4]: 5.46 ± 1.87
- Tumor Volume (d 1) [1, 4]: 147.44 ± 15.40 mm3
- Tumor Volume (d 30) [1, 4]: 804.17 ± 292.57 mm3
- Tumor Weight [1, 4]: 1.48 ± 0.24 g
- Inhibition Rate (tumor growth inhibition rate) [1, 5]: 34.43%
- Relative Tumor Proliferation Rate (T/C) [1, 5]: 46.49%
- Relative Tumor Volume (RTV) [1, 5]: 4.88 ± 1.36
- Tumor Volume (d 1) [1, 5]: 146.77 ± 18.26 mm3
- Tumor Volume (d 30) [1, 5]: 700.40 ± 143.83 mm3
- Tumor Weight [1, 5]: 1.13 ± 0.08 g
- Inhibition Rate (tumor growth inhibition rate) [1, 6]: 61.12%
- Relative Tumor Proliferation Rate (T/C) [1, 6]: 37.89%
- Relative Tumor Volume (RTV) [1, 6]: 3.98 ± 1.10
- Tumor Volume (d 1) [1, 6]: 149.76 ± 13.12 mm3
- Tumor Volume (d 30) [1, 6]: 604.38 ± 195.98 mm3
- Tumor Weight [1, 6]: 0.67 ± 0.20 g
- tumor volume and relative tumor volume compared with the model group ([1]; H460, low, medium and high doses, P<0.05): significantly lower
- mouse weight compared with the model group ([1]; mouse, in vivo): no significant changes
- Relative Tumor Proliferation Rate (T/C) [2, 7]: 46.70%
- tumor growth inhibition rate [2, 7]: 59.25%
- Relative Tumor Proliferation Rate (T/C) [2, 8]: 81.39%
- tumor growth inhibition rate [2, 8]: 15.57%
- tumor volume and relative tumor volume compared with the model group ([2]; T-24, low, medium and high doses, P<0.05): significantly lower
- Relative Tumor Proliferation Rate (T/C) [2, 9]: 64.89%
- tumor growth inhibition rate [2, 9]: 41.99%
- Inhibition Rate (%) ([2]; dose 25 mg/kg): 15.57%
- Relative Tumor Proliferation Rate (T/C) ([2]; dose 25 mg/kg): 81.39%
- Relative Tumor Volume (RTV) ([2]; dose 25 mg/kg): 10.75 ± 1.34
- Tumor Weight ([2]; dose 25 mg/kg): 1.58 ± 0.28 g
- Tumor Volume (mm3) (d 1) ([2]; dose 25 mg/kg, d 1): 132.64 ± 19.75 mm3
- Tumor Volume (mm3) (d30) ([2]; dose 25 mg/kg, d 30): 1414.36 ± 188.91 mm3
- Inhibition Rate (%) ([2]; dose 50 mg/kg): 41.99%
- Relative Tumor Proliferation Rate (T/C) ([2]; dose 50 mg/kg): 64.89%
- Relative Tumor Volume (RTV) ([2]; dose 50 mg/kg): 8.57 ± 1.31
- Tumor Weight ([2]; dose 50 mg/kg): 1.09 ± 0.42 g
- Tumor Volume (mm3) (d 1) ([2]; dose 50 mg/kg, d 1): 133.67 ± 5.07 mm3
- Tumor Volume (mm3) (d30) ([2]; dose 50 mg/kg, d 30): 1142.42 ± 146.91 mm3
- Inhibition Rate (%) ([2]; dose 100 mg/kg): 59.25%
- Relative Tumor Proliferation Rate (T/C) ([2]; dose 100 mg/kg): 46.70%
- Relative Tumor Volume (RTV) ([2]; dose 100 mg/kg): 6.17 ± 1.26
- Tumor Weight ([2]; dose 100 mg/kg): 0.76 ± 0.19 g
- Tumor Volume (mm3) (d 1) ([2]; dose 100 mg/kg, d 1): 133.57 ± 18.08 mm3
- Tumor Volume (mm3) (d30) ([2]; dose 100 mg/kg, d 30): 809.94 ± 131.43 mm3
- mouse weight compared with the model group ([2]; mouse, in vivo): no significant changes
- Body Weight (g) (d1) ([2]; mouse, in vivo, 25 mg/kg): 19.91 ± 0.28 g
- Body Weight (g) (d30) ([2]; mouse, in vivo, 25 mg/kg): 24.81 ± 2.42 g
- Body Weight (g) (d1) ([2]; mouse, in vivo, 50 mg/kg): 19.74 ± 0.82 g
- Body Weight (g) (d30) ([2]; mouse, in vivo, 50 mg/kg): 25.84 ± 0.73 g
- Body Weight (g) (d1) ([2]; mouse, in vivo, 100 mg/kg): 19.51 ± 0.50 g
- Body Weight (g) (d30) ([2]; mouse, in vivo, 100 mg/kg): 25.92 ± 1.35 g
- Relative Tumor Proliferation Rate (T/C) [3, 10]: 39.42%
- tumor growth inhibition rate [3, 10]: 60.19%
- Relative Tumor Proliferation Rate (T/C) [3, 11]: 83.41%
- tumor growth inhibition rate [3, 11]: 20.73%
- tumor volume and relative tumor volume compared with the model group ([3]; A549, low, medium and high doses, P<0.05): significantly lower
- Relative Tumor Proliferation Rate (T/C) [3, 12]: 58.75%
- tumor growth inhibition rate [3, 12]: 31.87%
- Inhibition Rate (%) ([3]; A549 nude mice, 25 mg/kg): 20.73%
- Relative Tumor Proliferation Rate (T/C) ([3]; A549 nude mice, 25 mg/kg): 83.41%
- Relative Tumor Volume (RTV) ([3]; A549 nude mice, 25 mg/kg): 13.54 ± 1.07
- Tumor Weight ([3]; A549 nude mice, 25 mg/kg): 1.90 ± 0.31 g
- Tumor Volume (mm3) (d 1) ([3]; A549 nude mice, 25 mg/kg, d1): 119.67 ± 7.25 mm3
- Tumor Volume (mm3) (d30) ([3]; A549 nude mice, 25 mg/kg, d30): 1614.91 ± 65.26 mm3
- Inhibition Rate (%) ([3]; A549 nude mice, 50 mg/kg): 31.87%
- Relative Tumor Proliferation Rate (T/C) ([3]; A549 nude mice, 50 mg/kg): 58.75%
- Relative Tumor Volume (RTV) ([3]; A549 nude mice, 50 mg/kg): 9.54 ± 2.62
- Tumor Weight ([3]; A549 nude mice, 50 mg/kg): 1.63 ± 0.32 g
- Tumor Volume (mm3) (d 1) ([3]; A549 nude mice, 50 mg/kg, d1): 117.96 ± 4.88 mm3
- Tumor Volume (mm3) (d30) ([3]; A549 nude mice, 50 mg/kg, d30): 1129.10 ± 326.54 mm3
- Inhibition Rate (%) ([3]; A549 nude mice, 100 mg/kg): 60.19%
- Relative Tumor Proliferation Rate (T/C) ([3]; A549 nude mice, 100 mg/kg): 47.94%
- Relative Tumor Volume (RTV) ([3]; A549 nude mice, 100 mg/kg): 7.78 ± 2.03
- Tumor Weight ([3]; A549 nude mice, 100 mg/kg): 0.95 ± 0.42 g
- Tumor Volume (mm3) (d 1) ([3]; A549 nude mice, 100 mg/kg, d1): 116.96 ± 6.56 mm3
- Tumor Volume (mm3) (d30) ([3]; A549 nude mice, 100 mg/kg, d30): 917.10 ± 270.86 mm3
- mouse weight compared with the model group ([3]; mouse, in vivo): no significant changes
- Body Weight (g) (d1) ([3]; mouse, in vivo, 25 mg/kg): 20.91 ± 1.07 g
- Body Weight (g) (d30) ([3]; mouse, in vivo, 25 mg/kg): 21.32 ± 1.88 g
- Body Weight (g) (d1) ([3]; mouse, in vivo, 50 mg/kg): 20.03 ± 1.88 g
- Body Weight (g) (d30) ([3]; mouse, in vivo, 50 mg/kg): 12.92 ± 1.68 g
- Body Weight (g) (d1) ([3]; mouse, in vivo, 100 mg/kg): 21.71 ± 1.94 g
- Body Weight (g) (d30) ([3]; mouse, in vivo, 100 mg/kg): 12.42 ± 1.37 g

SMILES: O=P1(N(CCCl)CCCl)NCCCO1 (stereo not drawn) [Cyclophosphamide, cyclophosphamide, reference compound]
- Body Weight (d 1) ([1]; H460, 30 mg/kg i.g. 30 days): 20.46 ± 0.54 g
- Body Weight (d 30) ([1]; H460, 30 mg/kg i.g. 30 days): 21.20 ± 0.75 g
- Inhibition Rate (tumor growth inhibition rate) ([1]; H460, 30 mg/kg i.g. 30 days): 71.08%
- Relative Tumor Proliferation Rate (T/C) ([1]; H460, 30 mg/kg i.g. 30 days): 30.86%
- Relative Tumor Volume (RTV) ([1]; H460, 30 mg/kg i.g. 30 days): 3.24 ± 0.99
- Tumor Volume (d 1) ([1]; H460, 30 mg/kg i.g. 30 days): 146.98 ± 27.55 mm3
- Tumor Volume (d 30) ([1]; H460, 30 mg/kg i.g. 30 days): 468.49 ± 128.57 mm3
- Tumor Weight ([1]; H460, 30 mg/kg i.g. 30 days): 0.50 ± 0.06 g
- Inhibition Rate (%) ([2]; dose 30 mg/kg): 73.04%
- Relative Tumor Proliferation Rate (T/C) ([2]; dose 30 mg/kg): 21.60%
- Relative Tumor Volume (RTV) ([2]; dose 30 mg/kg): 2.85 ± 0.50
- Tumor Weight ([2]; dose 30 mg/kg): 0.51 ± 0.12 g
- Body Weight (g) (d1) ([2]; dose 30 mg/kg, d 1): 19.53 ± 0.61 g
- Tumor Volume (mm3) (d 1) ([2]; dose 30 mg/kg, d 1): 136.87 ± 19.82 mm3
- Body Weight (g) (d30) ([2]; dose 30 mg/kg, d 30): 27.28 ± 1.43 g
- Tumor Volume (mm3) (d30) ([2]; dose 30 mg/kg, d 30): 389.34 ± 82.07 mm3
- Inhibition Rate (%) ([3]; A549 nude mice, 30 mg/kg): 70.59%
- Relative Tumor Proliferation Rate (T/C) ([3]; A549 nude mice, 30 mg/kg): 39.73%
- Relative Tumor Volume (RTV) ([3]; A549 nude mice, 30 mg/kg): 9.47 ± 2.91
- Tumor Weight ([3]; A549 nude mice, 30 mg/kg): 0.70 ± 0.39 g
- Body Weight (g) (d1) ([3]; A549 nude mice, 30 mg/kg, d1): 21.89 ± 1.22 g
- Tumor Volume (mm3) (d 1) ([3]; A549 nude mice, 30 mg/kg, d1): 115.15 ± 10.00 mm3
- Body Weight (g) (d30) ([3]; A549 nude mice, 30 mg/kg, d30): 19.27 ± 1.49 g
- Tumor Volume (mm3) (d30) ([3]; A549 nude mice, 30 mg/kg, d30): 733.89 ± 352.79 mm3
